US20240018161A1, “MODULATORS OF CYSTIC FIBROSIS TRANSMEMBRANE CONDUCTANCE REGULATOR” (VERTEX PHARMACEUTICALS INCORPORATED, priority 2020, published 2024)

Target: CFTR-mediated chloride transport in human intestinal epithelial enteroid cells (Homo sapiens, UniProt P13569)
Assay: Membrane potential dye, Enteroid Assay A
Format: cell-based
Conditions: Enteroid Assay A; for EC50: read-out: Ent. A EC50
How it was run: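 Membrane potential dye (20 μM methyl oxonol, with 30 μM CaCCinh-A01 and 30 μM Chicago Sky Blue) loaded 25 min at room temperature into ROCK-inhibitor-seeded human enteroid cells. Chloride-free stimulation buffer triggered transport, followed by 15 min fluorescence. % Activity relative to 3 μM/3 μM/300 nM triple-combination control.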

Sequence of CFTR-mediated chloride transport in human intestinal epithelial enteroid cells (P13569 with tags, fused parts or gaps DEL508-508): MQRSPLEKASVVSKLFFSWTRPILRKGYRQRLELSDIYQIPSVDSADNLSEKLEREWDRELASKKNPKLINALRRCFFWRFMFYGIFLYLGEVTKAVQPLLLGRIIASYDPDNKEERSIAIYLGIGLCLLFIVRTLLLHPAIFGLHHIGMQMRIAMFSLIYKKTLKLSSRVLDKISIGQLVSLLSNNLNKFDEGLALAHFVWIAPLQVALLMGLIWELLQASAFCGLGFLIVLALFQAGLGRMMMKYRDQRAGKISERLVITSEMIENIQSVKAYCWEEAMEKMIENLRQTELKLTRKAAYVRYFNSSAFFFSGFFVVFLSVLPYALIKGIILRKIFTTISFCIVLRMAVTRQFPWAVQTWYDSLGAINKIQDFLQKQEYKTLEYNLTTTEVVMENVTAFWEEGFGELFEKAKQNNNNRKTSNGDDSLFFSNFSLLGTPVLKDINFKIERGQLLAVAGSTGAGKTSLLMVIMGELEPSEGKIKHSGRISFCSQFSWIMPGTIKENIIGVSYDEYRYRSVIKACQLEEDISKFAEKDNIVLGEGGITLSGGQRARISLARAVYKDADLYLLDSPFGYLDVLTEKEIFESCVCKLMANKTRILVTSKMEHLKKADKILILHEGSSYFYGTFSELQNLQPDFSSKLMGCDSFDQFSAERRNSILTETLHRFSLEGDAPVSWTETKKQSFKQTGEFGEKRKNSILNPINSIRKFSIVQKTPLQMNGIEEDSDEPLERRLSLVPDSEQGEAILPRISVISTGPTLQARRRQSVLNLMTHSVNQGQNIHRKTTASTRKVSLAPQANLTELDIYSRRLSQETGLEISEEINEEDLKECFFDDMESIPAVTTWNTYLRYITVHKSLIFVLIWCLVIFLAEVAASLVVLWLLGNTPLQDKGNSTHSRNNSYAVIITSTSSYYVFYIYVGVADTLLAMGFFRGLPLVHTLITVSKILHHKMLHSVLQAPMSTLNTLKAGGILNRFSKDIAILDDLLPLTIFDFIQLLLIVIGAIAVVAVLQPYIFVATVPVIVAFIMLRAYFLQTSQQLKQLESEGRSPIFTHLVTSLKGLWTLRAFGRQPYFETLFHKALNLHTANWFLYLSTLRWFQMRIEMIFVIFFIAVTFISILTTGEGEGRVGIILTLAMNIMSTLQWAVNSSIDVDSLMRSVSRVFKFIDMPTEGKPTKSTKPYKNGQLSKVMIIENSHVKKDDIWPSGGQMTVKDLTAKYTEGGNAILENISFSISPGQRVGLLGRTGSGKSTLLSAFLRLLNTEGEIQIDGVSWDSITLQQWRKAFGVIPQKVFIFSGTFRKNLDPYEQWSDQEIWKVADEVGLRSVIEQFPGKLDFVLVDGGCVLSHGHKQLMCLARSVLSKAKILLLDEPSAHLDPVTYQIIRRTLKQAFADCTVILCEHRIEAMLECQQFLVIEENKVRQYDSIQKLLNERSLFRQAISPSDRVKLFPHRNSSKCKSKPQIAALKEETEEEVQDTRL

| Structure (SMILES) | Ent. A Max Activity (%) | EC50 |
| --- | --- | --- |
| Cc1cccc(C)c1-c1cc2nc(n1)NS(=O)(=O)c1cccc(c1)CN1CC(CN(C3CCC(F)(F)CC3)CC1=O)O2 (stereo not drawn) [Compound 78, 18-(4,4-Difluorocyclohexyl)-12-(2,6-dimethylphenyl)-15-oxa-8λ^6-thia-1,9,11,18,22-pentaazatetracyclo[14.4.1.13,7.110,14]tricosa-3(23),4,6,10,12,14(22)-hexaene-8,8,20-trione] | ++ (++ is 30-60%) | < 1000 nM |
| Cc1cccc(C)c1-c1cc2nc(n1)NS(=O)(=O)c1cccc(c1)C(=O)N1CCN(C(=O)C(C)(C)C)C[C@H](C1)O2 [Compound 80, (16R)-12-(2,6-Dimethylphenyl)-18-(2,2-dimethylpropanoyl)-15-oxa-8λ^6-thia-1,9,11,18,22-pentaazatetracyclo[14.4.1.13,7.110,14]tricosa-3(23),4,6,10,12,14(22)-hexaene-2,8,8-trione] | +++ (+++ is >600%) | 3000 to 30000 nM |
| Cc1cccc(C)c1-c1cc2nc(n1)NS(=O)(=O)c1cccc(c1)C(=O)N1CCN(Cc3ccccc3)CC(C)(C1)O2 (stereo not drawn) [Compound 82, 18-Benzyl-12-(2,6-dimethylphenyl)-16-methyl-15-oxa-8λ^6-thia-1,9,11,18,22-pentaazatetracyclo[14.4.1.13,7.110,14]tricosa-3(23),4,6,10,12,14(22)-hexaene-2,8,8-trione] | +++ (+++ is >600%) | 1000 to 3000 nM |
| Cc1cccc(C)c1-c1cc2nc(n1)NS(=O)(=O)c1cccc(c1)C(=O)N1CCN(C3CC4(CCCC4)C3)C[C@@H](O2)[C@H]1CC(C)C [Compound 83, (16R,21R)-12-(2,6-Dimethylphenyl)-21-(2-methylpropyl)-18-{spiro[3.4]octan-2-yl}-15-oxa-8λ^6-thia-1,9,11,18,22-pentaazatetracyclo[14.4.1.13,7.110,14]tricosa-3(23),4,6,10(22),11,13-hexaene-2,8,8-trione] | +++ (+++ is >600%) | < 1000 nM |
| Cc1cccc(C)c1-c1cc2nc(n1)NS(=O)(=O)c1cccc(c1)C(=O)N1CCNCC(O2)C1CC(C)C (stereo not drawn) [Compound 93, 12-(2,6-Dimethylphenyl)-21-(2-methylpropyl)-15-oxa-8λ^6-thia-1,9,11,18,22-pentaazatetracyclo[14.4.1.13,7.110,14]tricosa-3(23),4,6,10(22),11,13-hexaene-2,8,8-trione] | +++ (+++ is >600%) | 1000 to 3000 nM |
| Cc1cccc(C)c1-c1cc2nc(n1)NS(=O)(=O)c1cccc(c1)C(=O)N1C[C@@H](CNC[C@@H]1CC(C)C)O2 [Compound 95, (16R,20S)-12-(2,6-Dimethylphenyl)-20-(2-methylpropyl)-15-oxa-8λ^6-thia-1,9,11,18,22-pentaazatetracyclo[14.4.1.13,7.110,14]tricosa-3(23),4,6,10(22),11,13-hexaene-2,8,8-trione] | ++ (++ is 30-60%) | < 1000 nM |
| Cc1cccc(C)c1-c1cc2nc(n1)NS(=O)(=O)c1cccc(c1)C(=O)N1C[C@@H](CN(CC(F)(F)F)C[C@@H]1CC(C)C)O2 [Compound 98, (16R,20S)-12-(2,6-Dimethylphenyl)-20-(2-methylpropyl)-18-(2,2,2-trifluoroethyl)-15-oxa-8λ^6-thia-1,9,11,18,22-pentaazatetracyclo[14.4.1.13,7.110,14]tricosa-3(23),4,6,10(22),11,13-hexaene-2,8,8-trione] | + (+ is <30%) |  |
| Cc1cccc(C)c1-c1cc2nc(n1)NS(=O)(=O)c1cccc(c1)C(=O)N1C[C@@H](CN(C)C[C@@H]1CC(C)C)O2 [Compound 99, (16R,20S)-12-(2,6-Dimethylphenyl)-18-methyl-20-(2-methylpropyl)-15-oxa-8λ^6-thia-1,9,11,18,22-pentaazatetracyclo[14.4.1.13,7.110,14]tricosa-3(23),4,6,10(22),11,13-hexaene-2,8,8-trione] | ++ (++ is 30-60%) | < 1000 nM |
| Cc1cccc(C)c1-c1cc2nc(n1)NS(=O)(=O)c1cccc(c1)C(=O)N1C[C@@H](CNC[C@H]1CC(C)C)O2 [Compound 101, (16R,20R)-12-(2,6-Dimethylphenyl)-20-(2-methylpropyl)-15-oxa-8λ^6-thia-1,9,11,18,22-pentaazatetracyclo[14.4.1.13,7.110,14]tricosa-3(23),4,6,10,12,14(22)-hexaene-2,8,8-trione] | ++ (++ is 30-60%) | < 1000 nM |
| Cc1cccc(C)c1-c1cc2nc(n1)NS(=O)(=O)c1cccc(c1)C(=O)N1C[C@@H](CN(C)C[C@H]1CC(C)C)O2 [Compound 103, (16R,20R)-12-(2,6-Dimethylphenyl)-18-methyl-20-(2-methylpropyl)-15-oxa-8λ^6-thia-1,9,11,18,22-pentaazatetracyclo[14.4.1.13,7.110,14]tricosa-3(23),4,6,10(22),11,13-hexaene-2,8,8-trione] | +++ (+++ is >600%) | < 1000 nM |
| Cc1cccc(C)c1-c1cc2nc(n1)NS(=O)(=O)c1cccc(c1)C(=O)N1C[C@@H](CN(CC(C)(C)C)C[C@H]1CC(C)C)O2 [Compound 104, (16R,20R)-12-(2,6-Dimethylphenyl)-18-(2,2-dimethylpropyl)-20-(2-methylpropyl)-15-oxa-8λ^6-thia-1,9,11,18,22-pentaazatetracyclo[14.4.1.13,7.110,14]tricosa-3(23),4,6,10,12,14(22)-hexaene-2,8,8-trione] | +++ (+++ is >600%) | < 1000 nM |
| Cc1cccc(C)c1-c1cc2nc(n1)NS(=O)(=O)c1cccc(c1)C(=O)N1CCN(C(=O)OC(C)(C)C)[C@@H](CC(C)C)[C@H](C1)O2 [Compound 117, tert-Butyl (16S,17S)-12-(2,6-dimethylphenyl)-17-(2-methylpropyl)-2,8,8-trioxo-15-oxa-8λ^6-thia-1,9,11,18,22-pentaazatetracyclo[14.4.1.13,7.110,14]tricosa-3(23),4,6,10(22),11,13-hexaene-18-carboxylate] | +++ (+++ is >600%) | < 1000 nM |
| Cc1cccc(C)c1-c1cc2nc(n1)NS(=O)(=O)c1cccc(c1)C(=O)N1C[C@@H](CNC[C@H]1C(C)C)O2 [Compound 123, (16R,20R)-12-(2,6-Dimethylphenyl)-20-(propan-2-yl)-15-oxa-8λ^6-thia-1,9,11,18,22-pentaazatetracyclo[14.4.1.13,7.110,14]tricosa-3(23),4,6,10(22),11,13-hexaene-2,8,8-trione] | ++ (++ is 30-60%) | 1000 to 3000 nM |
| Cc1cccc(C)c1-c1cc2nc(n1)NS(=O)(=O)c1cccc(c1)C(=O)N1C[C@@H](CN(C3CCC(F)(F)CC3)C[C@H]1C(C)C)O2 [Compound 126, (16R,20R)-18-(4,4-Difluorocyclohexyl)-12-(2,6-dimethylphenyl)-20-(propan-2-yl)-15-oxa-8λ^6-thia-1,9,11,18,22-pentaazatetracyclo[14.4.1.13,7.110,14]tricosa-3(23),4,6,10(22),11,13-hexaene-2,8,8-trione] | +++ (+++ is >600%) | < 1000 nM |

Next, values leading:

| Ent. A Max Activity (%) | EC50 | Structure (SMILES) |
| --- | --- | --- |
| +++ (+++ is >600%) | < 1000 nM | Cc1cccc(C)c1-c1cc2nc(n1)NS(=O)(=O)c1cccc(c1)C(=O)N1CCN(C(=O)CC34CC5CC(CC(C5)C3)C4)C[C@H](C1)O2 [Compound 79, (16R)-18-[2-(Adamantan-1-yl)acetyl]-12-(2,6-dimethylphenyl)-15-oxa-8λ^6-thia-1,9,11,18,22-pentaazatetracyclo[14.4.1.13,7.110,14]tricosa-3(23),4,6,10,12,14(22)-hexaene-2,8,8-trione] |
| +++ (+++ is >600%) | 1000 to 3000 nM | Cc1cccc(C)c1-c1cc2nc(n1)NS(=O)(=O)c1cccc(c1)C(=O)N1CCN(C(=O)CC(C)(C)C)C[C@H](C1)O2 [Compound 81, (16R)-18-(3,3-Dimethylbutanoyl)-12-(2,6-dimethylphenyl)-15-oxa-8λ^6-thia-1,9,11,18,22-pentaazatetracyclo[14.4.1.13,7.110,14]tricosa-3(23),4,6,10,12,14(22)-hexaene-2,8,8-trione] |
| ++ (++ is 30-60%) | < 1000 nM | Cc1cccc(C)c1-c1cc2nc(n1)NS(=O)(=O)c1cccc(c1)C(=O)N1C[C@@H](CN(C3CC4(CCCC4)C3)C[C@@H]1CC(C)C)O2 [Compound 97, (16R,20S)-12-(2,6-Dimethylphenyl)-20-(2-methylpropyl)-18-{spiro[3.4]octan-2-yl}-15-oxa-8λ^6-thia-1,9,11,18,22-pentaazatetracyclo[14.4.1.13,7.110,14]tricosa-3(23),4,6,10(22),11,13-hexaene-2,8,8-trione] |
| +++ (+++ is >600%) | < 1000 nM | Cc1cccc(C)c1-c1cc2nc(n1)NS(=O)(=O)c1cccc(c1)C(=O)N1C[C@H](CC(C)C)NC[C@H](C1)O2 [Compound 108, (16R,19S)-12-(2,6-Dimethylphenyl)-19-(2-methylpropyl)-15-oxa-8λ^6-thia-1,9,11,18,22-pentaazatetracyclo[14.4.1.13,7.110,14]tricosa-3(23),4,6,10(22),11,13-hexaene-2,8,8-trione] |
| +++ (+++ is >600%) | < 1000 nM | Cc1cccc(C)c1-c1cc2nc(n1)NS(=O)(=O)c1cccc(c1)C(=O)N1C[C@@H](CN(C3CCC(F)(F)CC3)[C@@H](CC(C)C)C1)O2 [Compound 110, (16R,19S)-18-(4,4-Difluorocyclohexyl)-12-(2,6-dimethylphenyl)-19-(2-methylpropyl)-15-oxa-8λ^6-thia-1,9,11,18,22-pentaazatetracyclo[14.4.1.13,7.110,14]tricosa-3(23),4,6,10(22),11,13-hexaene-2,8,8-trione] |
| +++ (+++ is >600%) | < 1000 nM | Cc1cccc(C)c1-c1cc2nc(n1)NS(=O)(=O)c1cccc(c1)C(=O)N1C[C@@H](CN(C)C[C@H]1C(C)C)O2 [Compound 125, (16R,20R)-12-(2,6-Dimethylphenyl)-18-methyl-20-(propan-2-yl)-15-oxa-8λ^6-thia-1,9,11,18,22-pentaazatetracyclo[14.4.1.13,7.110,14]tricosa-3(23),4,6,10(22),11,13-hexaene-2,8,8-trione] |
